The values below come from patent US20130303487A1, “Compositions Comprising Zoledronic Acid or Related Compounds for Relieving Inflammatory Pain and Related Conditions” (priority 2012, published 2013).

Read-outs that look alike come from different tables or passages of the source.

The test system of series [1] is inflammatory pain (mechanical hyperalgesia). It counts as in vivo, Sprague-Dawley rats. The procedure: The effect of orally administered zoledronic acid on inflammatory pain was examined using the rat complete Freund's adjuvant (CFA) model. Inflammatory pain was induced by injection of 100% CFA in a 75 μL volume into the left hind paws of Sprague-Dawley rats on day 0, followed by assessments on days 1-3. Animals were orally administered vehicle (control), zoledronic acid 18 mg/m^2 (or 3 mg/kg), zoledronic acid 120 mg/m^2 (or 20 mg/kg), or zoledronic acid 900 mg/m^2 (or 150 mg/kg) daily on days 1-3. Drug was dissolved in distilled water and prepared fresh daily. Animals were fasted prior to dosing. Under current FDA guidelines for extrapolating starting dosages from animals to humans, dosages expressed in mg/m^2 are considered equivalent between mammalian species. Thus, for example, 18 mg/m^2 in a rat is considered equivalent to 18 mg/m^2 in a human being, while 3 mg/kg in a rat may not be equivalent to 3 mg/kg in a human being.
Values for inflammatory pain (mechanical hyperalgesia) in the vehicle and drug-treated animals were obtained on day 0 prior to CFA injection, and at baseline and post-treatment on days 1-3. Pain was assessed using a digital Randall-Selitto device (dRS; IITC Life Sciences, Woodland Hills, Calif.). Animals were placed in a restraint sling that suspended the animal, leaving the hind limbs available for testing. Paw compression threshold was measured by applying increasing pressure to the plantar surface of the hind paw with a dome-shaped tip placed between the 3rd and 4th metatarsus. Pressure was applied gradually over approximately 10 seconds. Measurements were taken from the first observed nocifensive behavior of vocalization, struggle or withdrawal. A cut-off value of 300 g was used to prevent injury to the animal.
Reversal of inflammatory pain was calculated according to the formula:
% reversal=(Post-treatment−Post-CFA baseline)/(Pre-CFA baseline−Post-CFA baseline)×100.
The experiment was carried out using 9-10 animals per group.

Series [2] relates to complex regional pain syndrome (CRPS). Briefly: rat tibia fracture model of complex regional pain syndrome (CRPS): von Frey, weight bearing, edema, warmth. It counts as in vivo. Particulars: oral 18 mg/m^2/day (3 mg/kg/day) for 28 days. Here is the method:
The effect of orally administered zoledronic acid was examined in the rat tibia fracture model of complex regional pain syndrome (CRPS). CRPS was induced in the rats by fracturing the right distal tibias of the animals and casting the fractured hindpaws for 4 weeks, as described in Guo T Z et al. (Pain. 2004; 108:95-107).
Animals were orally administered either vehicle (control) or zoledronic acid, in a dosage of 18 mg/m^2/day (3 mg/kg/day) for 28 days, starting on the day of fracture and casting. Drug was dissolved in distilled water and administered by gavage. Animals were fasted for 4 hours before and 2 hours after dosing. At the end of the 28-day period, casts were removed, and on the following day, the rats were tested for hindpaw pain, edema, and warmth.
Pain was assessed by measuring hyperalgesia, and weight bearing. […]
An incapacitance device (IITC Inc. Life Science, Woodland, Calif., USA) was used to measure hindpaw weight bearing, a postural effect of pain. […] Eight readings (excluding the highest and lowest ones) were averaged to calculate the bilateral hindpaw weight-bearing values. Weight bearing data were analyzed as the ratio between right (fracture) and left hindpaw weight bearing values ((2R/(R+L))×100%). […]
The temperature of the hindpaw was measured using a fine wire thermocouple (Omega, Stanford, Conn., USA) applied to the paw skin. […]

Consider `O=P(O)(O)C(O)(Cn1ccnc1)P(=O)(O)O` [zoledronic acid], for which the “paw compression thresholds versus vehicle” value in series [1] (oral 18 mg/m^2, entire measurement period after 30 minutes from start of treatment) is “higher than for vehicle”; in series [1] (oral 120 mg/m^2 (20 mg/kg), all time points) it was “approximately equal or inferior to vehicle”; in series [1] (oral 900 mg/m^2, day three) it was “greater than for vehicle”; in series [1] (two higher doses (120 and 900 mg/m^2), first two days of dosing) it was “lower than vehicle”. Besides, the toxicity entry in series [1] (oral 900 mg/m^2 (150 mg/kg) daily days 1-3, two days after cessation of dosing) is given as “significant toxicity necessitating euthanization of all the animals in this group”. Besides, the “hindlimb weight bearing on fracture hindlimb” value in series [2] was 86 % of normal.
